Experimental data as given in the supplement of paper PMC10307832.

What was measured:
Test in all cases: relative viability (nuclei count vs DMSO), 5 days (fraction); higher = more cells survive
[1] = system: NCI-H1355
In short: (§1)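 Relative viability was taken as the ratio of nuclei in treated wells to nuclei in vehicle wells. Lung cancer cell lines in 1536-well plates received compounds by pin tool one day after seeding, either one drug alone or a fixed anchor-drug dose plus five library-drug doses (not always all listed) in √10 steps. Nuclei were counted on 4× images after 5 days of treatment, and values are medians of duplicate plates.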

[2] = system: NCI-H838
In short: as §1

[3] = system: HARA
In short: as §1

[4] = system: NCI-H2009
In short: as §1

[5] = system: SK-MES-1
In short: as §1

[6] = system: PC-14
In short: as §1

[7] = system: COR-L 105
In short: as §1

[8] = system: NCI-H1993
In short: as §1

[9] = system: EKVX
In short: as §1

[10] = system: NCI-H2170
In short: as §1

[11] = system: NCI-H1755
In short: as §1

[12] = system: NCI-H2347
In short: as §1

[13] = system: COR-L23
In short: as §1

[14] = system: NCI-H1734
In short: as §1

[15] = system: UMC-11
In short: as §1

[16] = system: NCI-H647
In short: as §1

[17] = system: NCI-H1395
In short: as §1

[18] = system: HOP-62
In short: as §1

[19] = system: NCI-H2228
In short: as §1

[20] = system: HCC-15
In short: as §1

[21] = system: NCI-H358
In short: as §1

[22] = system: NCI-H1793
In short: as §1

## NC(=O)Nc1cc(-c2cccc(F)c2)sc1C(=O)N[C@H]1CCCNC1 [AZD7762] + CS(=O)(=O)CCNCc1ccc(-c2ccc3ncnc(Nc4ccc(OCc5cccc(F)c5)c(Cl)c4)c3c2)o1 [Lapatinib] (partner 2 µM)
[1]; first compound 0.01 µM
  relative viability: 1
[1]; first compound 0.03162 µM
  relative viability: 0.993
[1]; first compound 0.1 µM
  relative viability: 1.01
[1]; first compound 0.3162 µM
  relative viability: 1.02
[1]; first compound 1 µM
  relative viability: 0.719
[2]; first compound 0.01 µM
  relative viability: 0.917
[2]; first compound 0.03162 µM
  relative viability: 0.908
[2]; first compound 0.1 µM
  relative viability: 1.07
[2]; first compound 0.3162 µM
  relative viability: 0.903
[2]; first compound 1 µM
  relative viability: 0.268
[3]; first compound 0.01 µM
  relative viability: 0.851
[3]; first compound 0.03162 µM
  relative viability: 0.763
[3]; first compound 0.1 µM
  relative viability: 0.759
[3]; first compound 0.3162 µM
  relative viability: 0.781
[3]; first compound 1 µM
  relative viability: 0.256
[4]; first compound 0.01 µM
  relative viability: 1.25
[4]; first compound 0.03162 µM
  relative viability: 1.04
[4]; first compound 0.1 µM
  relative viability: 1
[4]; first compound 0.3162 µM
  relative viability: 0.896
[4]; first compound 1 µM
  relative viability: 0.518
[5]; first compound 0.01 µM
  relative viability: 0.434
[5]; first compound 0.03162 µM
  relative viability: 0.396
[5]; first compound 0.1 µM
  relative viability: 0.457
[5]; first compound 0.3162 µM
  relative viability: 0.468
[5]; first compound 1 µM
  relative viability: 0.469
[6]; first compound 0.01 µM
  relative viability: 0.345
[6]; first compound 0.03162 µM
  relative viability: 0.305
[6]; first compound 0.1 µM
  relative viability: 0.348
[6]; first compound 0.3162 µM
  relative viability: 0.256
[6]; first compound 1 µM
  relative viability: 0.299
[7]; first compound 0.01 µM
  relative viability: 0.413
[7]; first compound 0.03162 µM
  relative viability: 0.353
[7]; first compound 0.1 µM
  relative viability: 0.254
[7]; first compound 0.3162 µM
  relative viability: 0.332
[7]; first compound 1 µM
  relative viability: 0.282
[8]; first compound 0.01 µM
  relative viability: 0.791
[8]; first compound 0.03162 µM
  relative viability: 0.789
[8]; first compound 0.1 µM
  relative viability: 0.664
[8]; first compound 0.3162 µM
  relative viability: 0.89
[8]; first compound 1 µM
  relative viability: 0.793
[9]; first compound 0.01 µM
  relative viability: 0.204
[9]; first compound 0.03162 µM
  relative viability: 0.232
[9]; first compound 0.1 µM
  relative viability: 0.206
[9]; first compound 0.3162 µM
  relative viability: 0.253
[9]; first compound 1 µM
  relative viability: 0.166
[10]; first compound 0.01 µM
  relative viability: 0.289
[10]; first compound 0.03162 µM
  relative viability: 0.256
[10]; first compound 0.1 µM
  relative viability: 0.26
[10]; first compound 0.3162 µM
  relative viability: 0.263
[10]; first compound 1 µM
  relative viability: 0.257
[11]; first compound 0.01 µM
  relative viability: 1.07
[11]; first compound 0.03162 µM
  relative viability: 1.1
[11]; first compound 0.1 µM
  relative viability: 1.17
[11]; first compound 0.3162 µM
  relative viability: 0.924
[11]; first compound 1 µM
  relative viability: 0.364
[12]; first compound 0.01 µM
  relative viability: 1.11
[12]; first compound 0.03162 µM
  relative viability: 0.986
[12]; first compound 0.1 µM
  relative viability: 1.07
[12]; first compound 0.3162 µM
  relative viability: 0.934
[12]; first compound 1 µM
  relative viability: 1.17
[13]; first compound 0.01 µM
  relative viability: 1.16
[13]; first compound 0.03162 µM
  relative viability: 1.06
[13]; first compound 0.1 µM
  relative viability: 0.953
[13]; first compound 0.3162 µM
  relative viability: 0.729
[13]; first compound 1 µM
  relative viability: 0.131
[14]; first compound 0.01 µM
  relative viability: 0.974
[14]; first compound 0.03162 µM
  relative viability: 1.16
[14]; first compound 0.1 µM
  relative viability: 1.13
[14]; first compound 0.3162 µM
  relative viability: 0.946
[14]; first compound 1 µM
  relative viability: 0.67
[15]; first compound 0.01 µM
  relative viability: 0.936
[15]; first compound 0.03162 µM
  relative viability: 1.01
[15]; first compound 0.1 µM
  relative viability: 0.871
[15]; first compound 0.3162 µM
  relative viability: 0.743
[15]; first compound 1 µM
  relative viability: 0.398
[16]; first compound 0.01 µM
  relative viability: 1.14
[16]; first compound 0.03162 µM
  relative viability: 1.12
[16]; first compound 0.1 µM
  relative viability: 0.963
[16]; first compound 0.3162 µM
  relative viability: 0.519
[16]; first compound 1 µM
  relative viability: 0.0944
[17]; first compound 0.01 µM
  relative viability: 1.04
[17]; first compound 0.03162 µM
  relative viability: 1.06
[17]; first compound 0.1 µM
  relative viability: 1.05
[17]; first compound 0.3162 µM
  relative viability: 0.543
[17]; first compound 1 µM
  relative viability: 0.362
[18]; first compound 0.01 µM
  relative viability: 0.993
[18]; first compound 0.03162 µM
  relative viability: 1.06
[18]; first compound 0.1 µM
  relative viability: 1.27
[18]; first compound 0.3162 µM
  relative viability: 0.989
[18]; first compound 1 µM
  relative viability: 0.565
[19]; first compound 0.01 µM
  relative viability: 1.28
[19]; first compound 0.03162 µM
  relative viability: 1.46
[19]; first compound 0.1 µM
  relative viability: 1.22
[19]; first compound 0.3162 µM
  relative viability: 0.34
[19]; first compound 1 µM
  relative viability: 0.231
[20]; first compound 0.01 µM
  relative viability: 0.842
[20]; first compound 0.03162 µM
  relative viability: 0.823
[20]; first compound 0.1 µM
  relative viability: 0.807
[20]; first compound 0.3162 µM
  relative viability: 0.782
[20]; first compound 1 µM
  relative viability: 0.907
[21]; first compound 0.01 µM
  relative viability: 0.478
[21]; first compound 0.03162 µM
  relative viability: 0.537
[21]; first compound 0.1 µM
  relative viability: 0.497
[21]; first compound 0.3162 µM
  relative viability: 0.451
[21]; first compound 1 µM
  relative viability: 0.327
[22]; first compound 0.01 µM
  relative viability: 1.08
[22]; first compound 0.03162 µM
  relative viability: 0.721
[22]; first compound 0.1 µM
  relative viability: 0.805
[22]; first compound 0.3162 µM
  relative viability: 0.874
[22]; first compound 1 µM
  relative viability: 0.261
